According to PMC4113215 (Biochemical and biophysical research communications, 2014):

Key:
[1] = biological target: T1, mDMGDH (mature rat DMGDH) (Rattus norvegicus, UniProt Q63342); test: X-ray crystal structure, […] Å; format: binding; conditions: covalent; histidyl(N3)-(8alpha)FAD at His84; no folate
T1 sequence (Q63342 22-857): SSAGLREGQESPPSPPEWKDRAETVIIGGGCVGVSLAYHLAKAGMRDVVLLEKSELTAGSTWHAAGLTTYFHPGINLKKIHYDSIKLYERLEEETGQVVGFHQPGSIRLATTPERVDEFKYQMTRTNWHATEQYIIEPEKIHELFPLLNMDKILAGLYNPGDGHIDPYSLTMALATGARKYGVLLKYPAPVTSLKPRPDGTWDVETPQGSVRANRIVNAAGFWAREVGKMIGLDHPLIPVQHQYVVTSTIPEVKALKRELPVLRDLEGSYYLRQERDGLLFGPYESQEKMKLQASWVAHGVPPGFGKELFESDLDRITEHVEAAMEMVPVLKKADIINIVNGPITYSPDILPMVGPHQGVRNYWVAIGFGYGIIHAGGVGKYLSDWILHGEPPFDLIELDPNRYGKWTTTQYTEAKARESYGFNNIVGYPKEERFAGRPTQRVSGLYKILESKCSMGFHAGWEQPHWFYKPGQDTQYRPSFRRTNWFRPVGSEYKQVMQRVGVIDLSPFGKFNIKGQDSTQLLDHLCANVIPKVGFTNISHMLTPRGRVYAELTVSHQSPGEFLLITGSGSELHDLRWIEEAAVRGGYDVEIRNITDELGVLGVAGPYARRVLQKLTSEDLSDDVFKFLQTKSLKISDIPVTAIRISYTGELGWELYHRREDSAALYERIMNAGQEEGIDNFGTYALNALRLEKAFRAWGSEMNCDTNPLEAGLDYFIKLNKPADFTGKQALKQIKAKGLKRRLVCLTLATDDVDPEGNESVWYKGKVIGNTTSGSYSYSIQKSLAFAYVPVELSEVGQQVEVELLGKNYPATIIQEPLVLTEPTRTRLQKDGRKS

[2] = biological target: T2, prDMGDH-var2 (precursor DMGDHvar-2) (Rattus norvegicus, UniProt Q63342); test: X-ray crystal structure, […] Å; format: binding; conditions: covalent; histidyl(N3)-(8alpha)FAD at His84; THF also bound
T2 sequence (Q63342 1-857): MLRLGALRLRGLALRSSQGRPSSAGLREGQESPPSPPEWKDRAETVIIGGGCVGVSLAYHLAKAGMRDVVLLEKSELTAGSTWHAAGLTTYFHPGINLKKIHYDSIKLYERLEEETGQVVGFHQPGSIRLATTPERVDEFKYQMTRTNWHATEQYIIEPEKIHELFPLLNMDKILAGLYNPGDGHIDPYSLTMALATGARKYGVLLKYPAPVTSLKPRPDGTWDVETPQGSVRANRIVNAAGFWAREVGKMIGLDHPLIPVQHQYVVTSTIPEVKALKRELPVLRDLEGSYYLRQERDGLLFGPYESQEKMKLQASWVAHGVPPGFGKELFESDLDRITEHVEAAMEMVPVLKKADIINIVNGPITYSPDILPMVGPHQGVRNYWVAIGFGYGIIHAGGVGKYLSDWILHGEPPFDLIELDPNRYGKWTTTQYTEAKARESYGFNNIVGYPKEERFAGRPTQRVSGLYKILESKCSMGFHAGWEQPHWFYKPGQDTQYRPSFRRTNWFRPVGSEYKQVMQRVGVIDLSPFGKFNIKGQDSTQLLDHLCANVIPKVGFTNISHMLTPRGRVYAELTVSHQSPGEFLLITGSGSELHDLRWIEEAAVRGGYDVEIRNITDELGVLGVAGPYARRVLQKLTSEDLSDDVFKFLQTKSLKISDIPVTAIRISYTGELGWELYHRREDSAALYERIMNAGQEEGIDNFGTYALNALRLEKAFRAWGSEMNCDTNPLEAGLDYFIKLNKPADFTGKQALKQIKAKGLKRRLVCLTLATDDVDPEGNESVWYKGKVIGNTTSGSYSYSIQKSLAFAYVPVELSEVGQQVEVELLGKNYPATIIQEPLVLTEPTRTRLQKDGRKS

Cc1cc2nc3c(=O)[nH]c(=O)nc-3n(C[C@H](O)[C@H](O)[C@H](O)COP(=O)(O)OP(=O)(O)OC[C@H]3O[C@@H](n4cnc5c(N)ncnc54)[C@H](O)[C@@H]3O)c2cc1C [FAD]
X-ray crystal structure, 2.32 Å [1]: N-terminal domain covalently binds cofactor FAD through His84
X-ray crystal structure, 1.85 Å [2]: two covalently bound FAD molecules, two folate molecules
